Test results reported in patent US12257235B2, “Methods and materials for using ruminococcus gnavus or clostridium sporogenes to treat gastrointestinal disorders” (Mayo Foundation for Medical Education and Research, priority 2015, dated 2025).
Entries after “also recorded” stand apart in the source; their conditions may differ. Like-named read-outs stand apart in the source and are kept apart here.

Legend:
CLOSPO_02083 [1] = target: T1, CLOSPO_02083 (Clostridium sporogenes, UniProt J7SZ64); assay: Inhibition of CLOSPO_02083 tryptamine production by (S)-α-FMT, progress curves; assay type: biochemical; details: CLOSPO_02083, 10 mM Trp
T1 construct: His6 (N); made in house; host or cells: E. coli BL21 (DE3)
T1 sequence (J7SZ64 whole entry): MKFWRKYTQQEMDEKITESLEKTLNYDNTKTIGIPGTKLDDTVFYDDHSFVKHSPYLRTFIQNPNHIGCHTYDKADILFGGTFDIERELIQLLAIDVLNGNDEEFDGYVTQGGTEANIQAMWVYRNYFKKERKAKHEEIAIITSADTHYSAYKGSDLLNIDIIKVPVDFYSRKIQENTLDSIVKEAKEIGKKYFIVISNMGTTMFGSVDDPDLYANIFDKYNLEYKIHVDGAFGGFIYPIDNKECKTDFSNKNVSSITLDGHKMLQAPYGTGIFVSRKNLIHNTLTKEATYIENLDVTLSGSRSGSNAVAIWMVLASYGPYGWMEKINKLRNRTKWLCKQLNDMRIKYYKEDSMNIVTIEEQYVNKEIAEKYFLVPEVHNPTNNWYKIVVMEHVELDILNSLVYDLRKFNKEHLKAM
Source text: (§1) Progress curves were fitted to the equation [P]=(vi/kobs)(1−exp(−kObst)), where P is the product formed at time t, vi is the initial velocity, and kobs is the apparent first-order rate constant for enzyme inactivation. The kobs were plotted versus inhibitor concentration and fitted to the equation kobs=kinact[I]/(Kapp+[I]), where Kapp is the apparent dissociation constant of the reversible enzyme-inhibitor complex, and kinact is the first-order rate constant for apparent irreversible conversion of the enzyme-inhibitor complex to covalently bound complex. Ki values were calculated using the equation Ki=Kapp/(1+[tryptophan])/Km,Trp) using experimentally determined Km values for tryptophan (Schirmer et al., Proc. Natl. Acad. Sci. USA, 103(11):4234-4239 (2006)).
(§2) The production of tryptamine was measured by HPLC in the presence of various concentrations of inhibitor over 30 minutes and progress curves of the reaction were analyzed to assess the kinetics of inhibition.

RUMGNA_01526 [2] = target: T2, RUMGNA_01526 (Mediterraneibacter gnavus, UniProt A7B1V0); assay: Inhibition of RUMGNA_01526 tryptamine production by (S)-α-FMT, progress curves; assay type: biochemical, Ruminococcus gnavus; details: RUMGNA_01526, 2.5 mM Trp
T2 construct: His6 (N); made in house; host or cells: E. coli BL21 (DE3)
Source text: as §1, §2

[3] = test system: proximal colon, stripped of external muscle layers; assay: Ussing chamber short circuit current of proximal colon from GF, HM and CR mice; details: for EC50: Mus musculus; for EC50 / Emax (Δ Isc): serosal; for cumulative concentration response curves (intestinal secretion): serosal application, GF vs HM and CR mice
Description: Colonic mucosal transepithelial resistance (TER) was measured at the beginning of each experiment and FITC Dextran (4 k Da) flux was determined from the linear fit of samples obtained from the serosal side every 5 minutes for 30 minutes after adding 1 mg/mL FITC-Dextran to the mucosal side. Change in short circuit current (Δ lsc) was determined in response to electrical field stimulation (EFS) using foil electrodes on the submucosal side (30-150V, 100 0.5 ms pulses at 1-2 Hz). There was no significant difference in Δ lsc between GF and HM in response to EFS at 1 Hz (138±42 vs 202±71 μA/cm^2; n=4; p>0.05) or 2 Hz (180±28 vs 252±70 μA/cm^2; n=4; p>0.05).
Acetylcholine (Ach) in increasing concentrations (0.01-300 μM) on the serosal side was used as a control for tissue reactivity. Cumulative concentration response curves induced by serosal ACh were not different between GF and HM as evident by similar Emax (261±38 vs 299±27 μA/cm^2; n=5; p>0.05) and EC50 (20.6±3 vs 22.7±9 μM) values.

[4] = test system: tryptophan hydroxylase 1 (Tph1) mRNA expression in BON cells
Description: Cells were plated at 1×10^5 per ml and grown to 90% confluency in 12-well culture plates. Culture wells were then treated (in triplicate) with tryptamine in media for 6 hours, fixed in RNA Protect (Qiagen) and subjected to qRT-PCR.

CLOSPO_02083 [5] = target: T1, CLOSPO_02083; assay type: biochemical; details: for decarboxylation of Phe by CLOSPO_02083: up to 90 mM substrate, 60 minutes
Description: (§3) Reaction mixtures contained 50 mM sodium phosphate pH 6.5, 300 mM NaCl, and […] PLP. Reactions were initiated by the addition of enzyme and terminated by quenching aliquots with 1 volume of MeOH and performed at 37° C. All substrates purchased from Sigma-Aldrich.
(§4) Under the same buffer and reaction conditions, the kinetic parameters for the decarboxylation of phenylalanine by RUMGNA_01526 were determined by adding RUMGNA_01526 to a final concentration of 500 nM, and the concentration of phenylalanine varied from 5-80 mM. Reactions proceeded for 10 minutes. The kinetic parameters for the decarboxylation of tryptophan by CLOSPO_02083 were determined by adding CLOSPO_02083 to a final concentration of 100 nM, and the concentration of tryptophan varied from 0.15-24.5 mM. Reactions proceeded for 6 minutes.
To gain insight into the substrate selectivity of CLOSPO_02083, the basic kinetic parameters were measured for CLOSPO_02083-catalyzed decarboxylation of the aromatic amino acids Trp, Tyr, and phenylalanine (Phe). To determine kcat and Km for CLOSPO_02083, the concentration of the amino acid substrate was varied under initial velocity conditions (FIGS. 3C and 4A).

RUMGNA_01526 [6] = target: T2, RUMGNA_01526; assay type: biochemical, Ruminococcus gnavus
Description: as §3
To determine the kinetic parameters for the decarboxylation of tryptophan by RUMGNA 01526, RUMGNA_01526 was added to a final concentration of 10 nM, and kcat and Km were determined by varying the concentration of tryptophan from 0.15-10 mM. Reactions proceeded for 7 minutes and were quenched as described. 100 μL of the quenched reaction was analyzed by HPLC. Peak areas were integrated and compared with a standard curve to calculate product concentration. Triplicate measurements were made from a single batch of purified enzyme. Initial velocity data were fit to the Michaelis-Menten equation by using the program GraphPad. The allosteric sigmoidal model was used by fitting to the Hill equation: y=vmax*x^h/(K0.5^h+x^h), where h is the Hill coefficient and K0.5 is the apparent concentration at half maximal velocity.
as §4
Basic kinetic parameters were measured for the decarboxylation of Trp, Tyr, and Phe by RUMGNA_01526.

5HTR4 = details: for response (Δ Isc) to mucosal application / response (Δ Isc) to serosal application: 5HTR4 KO mice
Description: The response to […] (5HT; 0.003-300 μM) on the mucosal or serosal side and tryptamine (0.003-3000 μM) on the mucosal or serosal side was determined in segments of proximal colon, stripped of external muscle layers, from both 5HTR4 KO and WT mice.

[7] = test system: proximal colon, stripped of external muscle layers; assay: Ussing chamber short circuit current of proximal colon from GF, HM and CR mice; details: HM or CR mice
[8] = test system: proximal-mid colon, stripped of external muscle layers; assay: Ion secretion from the murine colon, Ussing chamber short circuit current; set-up: species or system SvEv129 mice; details: 3 mM tryptamine, mucosal side
Description: A segment of proximal-mid colon, stripped of external muscle layers from each of three SvEv129 mice was mounted in 0.3 cm^2 area, 4 mL Ussing chamber. […] (FIG. 6).
The function of tryptamine in the context of microbe-host signaling in the gut was examined. An experiment to test whether tryptamine is capable of inducing ion secretion by intestinal epithelial cells was performed. Using an Ussing chamber, a segment of proximal-mid murine colon mucosa was exposed to two concentrations of tryptamine and the change of short circuit current was measured.

[9] = test system: full-thickness colonic segments; assay: Open organ bath intraluminal pressure of mouse colonic segments ex vivo
Description: Preparations of full-thickness colonic segments (˜1.5 cm) were allowed to equilibrate in 37° C. Kreb's-jacketed organ baths with their distal ends opening to a pressure transducer and maintained under basal pressure of 5-cm column of vehicle (RL). The proximal end was closed during pressure recordings but opened to allow luminal infusion of vehicle or tryptamine in solution (100 μM, 1 mM and 3 mM; 10 minutes per treatment; n=5-7 mice).

[10] = at the highest concentration of Tyr tested
[11] = any of the tryptamine concentrations
[12] = 1 μM enzyme, 2.28 mM tyrosine, 90 minutes

What does the source list for N[C@@](CF)(Cc1c[nH]c2ccccc12)C(=O)O [(S)-α-FMT, (S)-α-fluoromethyltryptophan]?
Ki (CLOSPO_02083 [1]): 0.2 µM; kinact (CLOSPO_02083 [1]): 0.00167 s⁻¹; Ki (RUMGNA_01526 [2]): 178 µM; kinact (RUMGNA_01526 [2]): 0.02 s⁻¹

What does the source list for CC(=O)OCC[N+](C)(C)C [ACh, Acetylcholine]?
EC50 ([3]; GF mice): 20.6 ± 3 µM; EC50 ([3]; HM mice): 22.7 ± 9 µM; Emax (Δ Isc) ([3]; GF mice): 261±38 μA/cm^2; Emax (Δ Isc) ([3]; HM mice): 299±27 μA/cm^2

For CCCC(=O)O [Butyrate, butyrate], which “Tph1 mRNA induction above controls” value ([4]; butyrate 500 μM) is on record?
The value was 3.5 fold.

What about the “Tph1 mRNA induction above controls” value ([4]; butyrate 1 mM) of the same compound?
The value was 2.5 fold.

For N[C@@H](Cc1ccccc1)C(=O)O [Phe, phenylalanine], which “decarboxylation of Phe by CLOSPO_02083” value (CLOSPO_02083 [5]; 1 μM enzyme) is on record?
Its value is “undetectable”.

What about the “decarboxylation of Phe by CLOSPO_02083” value (CLOSPO_02083 [5]; 1 μM enzyme, listed as phenylalanine) of the same compound?
Its value is “not observed”.

For N[C@@H](Cc1c[nH]c2ccccc12)C(=O)O [Trp, tryptophan], which “efficiency of decarboxylating Trp relative to Tyr” value (CLOSPO_02083 [5]; [10]) is on record?
Its value is 600 fold.

What about the kcat (CLOSPO_02083 [5]; decarboxylation of Trp by CLOSPO_02083) of the same compound?
Its kcat is 20 s⁻¹.

What about the Km (CLOSPO_02083 [5]; decarboxylation of Trp by CLOSPO_02083, 100 nM enzyme, 37° C.) of the same compound?
Its Km is 2800 µM.

What about the “Km for Trp relative to Phe (lower)” value (RUMGNA_01526 [6]; RUMGNA_01526) of the same compound?
The value was 70 fold.

And the “catalytic efficiency for Trp relative to Phe” value (RUMGNA_01526 [6]; RUMGNA_01526)?
The value was greater than 1000 fold.

And the “kcat for Trp relative to Phe (higher)” value (RUMGNA_01526 [6]; RUMGNA_01526)?
The value was 19 fold.

What about the “efficiency of decarboxylating Trp relative to Tyr” value (RUMGNA_01526 [6]; [10]) of the same compound?
The value was 1000 fold.

What about the kcat (RUMGNA_01526 [6]; decarboxylation of Trp by RUMGNA_01526) of the same compound?
Its kcat is 73.33 s⁻¹.

And the Km (RUMGNA_01526 [6]; decarboxylation of Trp by RUMGNA_01526, 10 nM enzyme, 37° C.)?
The Km was 1100 ± 100 µM.

For CC(=O)O [acetate], which Tph1 expression induction ([4]; acetate 10 mM) is on record?
Its Tph1 expression induction is 2.5 fold.

And the Tph1 expression induction ([4]; acetate 30 mM)?
Its Tph1 expression induction is 3.2 fold.

And the Tph1 expression induction ([4]; acetate 50 mM)?
Its Tph1 expression induction is 2.2 fold.

How did the “cumulative concentration response curves (intestinal secretion)” value [3] turn out when NCCc1c[nH]c2ccc(O)cc12 [serotonin, 5-hydroxy tryptamine, reference compound] was run?
The value was “significantly higher in GF compared to HM and CR”.

And the “response (Δ Isc) to mucosal application” value (5HTR4)?
The value was “no response”.

What about the “response (Δ Isc) to serosal application” value (5HTR4) of the same compound?
Its value is “decreased responsiveness”.

What about the “biological effect in the presence of 5HT3 receptor antagonist” value [7] of the same compound?
The value was “blocked the biological effect”.

And the “biological effect in the presence of 5HT4 receptor antagonist” value [7]?
The value was “blocked the biological effect”.

What about the “maximal response (Emax) in the presence of 5HT3 receptor antagonist” value [7] of the same compound?
Its value is “can be blocked”.

And the “maximal response (Emax) in the presence of 5HT4 receptor antagonist” value [7]?
The value was “can be blocked”.

How did the “change in short circuit current (ion secretion)” value [8] turn out when NCCc1c[nH]c2ccccc12 [tryptamine] was run?
Its value is “significant change in short circuit current; also recorded: significant increase”.

What about the “contractile duration, measured at half amplitude, vs vehicle” value ([9]; any of the luminal tryptamine treatments) of the same compound?
Its value is “not significantly different”.

And the “contractile magnitude, area under the curve, vs vehicle” value [9, 11]?
Its value is “not significantly different”.

And the “mean contractile amplitude vs vehicle” value [9, 11]?
The value was “not significantly different”.

And the “contractile frequency vs vehicle controls” value ([9]; luminal 100 μM, 1 mM and 3 mM)?
The value was “not significantly different”.

And the contractile frequency ([9]; luminal 1 mM tryptamine, vehicle control 4.1±0.6, P=0.15)?
Its contractile frequency is 5.9±0.8.

And the “cumulative concentration response curves (intestinal secretion)” value [3]?
Its value is “significantly higher in GF compared to HM and CR”.

And the “response (Δ Isc) to mucosal application” value (5HTR4)?
The value was “no response”.

And the “response (Δ Isc) to serosal application” value (5HTR4)?
Its value is “no response”.

What about the “Δ Isc response” value (5HTR4; mucosal application of 3000 μM, 5HTR4 WT mice, maximum response not reached) of the same compound?
The value was 99.5±30.7.

What about the “Emax (Δ Isc)” value (5HTR4; serosal application, 5HTR4 WT mice) of the same compound?
Its value is 110±17 μA/cm2.

And the “alteration of Tph1 mRNA levels” value ([4]; 1 μM, 5 μM, 10 μM and 20 μM, 6 hours)?
The value was “None of the tested tryptamine concentrations (1 μM, 5 μM, 10 μM, and 20 μM) reproducibly showed a significant alteration”.

And the “biological effect in the presence of 5HT3 receptor antagonist” value [7]?
Its value is “did not block”.

And the “biological effect in the presence of 5HT4 receptor antagonist” value [7]?
The value was “blocked the biological effect”.

What about the “maximal response (Emax) in the presence of 5HT3 receptor antagonist” value [7] of the same compound?
Its value is “is not blocked”.

What about the “maximal response (Emax) in the presence of 5HT4 receptor antagonist” value [7] of the same compound?
The value was “can be blocked”.

How did the “decarboxylation of tyrosine by CLOSPO_02083” value (CLOSPO_02083 [5]; [12]) turn out when N[C@@H](Cc1ccc(O)cc1)C(=O)O [tyrosine] was run?
The value was “observed”.

What about the “decarboxylation of tyrosine by RUMGNA_01526” value (RUMGNA_01526 [6]; [12]) of the same compound?
Its value is “observed”.
